# Test results reported in ChEMBL document CHEMBL3745701, “Bioactive minor components of the total salvianolic acids injection prepared from Salvia miltiorrhiza Bge” (Bioorg Med Chem Lett, 2016).
# How the values were obtained:
# [1] = Cytotoxicity against mouse Hepa-1c1c7 cells assessed as cell viability at 20 uM after 24 hrs by crystal violet staining-based assay; details: read-out: Activity
# [2] = target: NAD(P)H dehydrogenase [quinone] 1 (Mus musculus) (UniProt Q64669); assay: Induction of NQO1 activity in mouse Hepa-1c1c7 cells at 10 uM after 24 hrs by MTT assay relative to control; format: cell-based
# [3] = target: NAD(P)H dehydrogenase [quinone] 1 (Mus musculus) (UniProt Q64669); assay: Induction of NQO1 activity in mouse Hepa-1c1c7 cells at 20 uM after 24 hrs by MTT assay relative to control; format: cell-based
# [4] = Cytotoxicity against mouse Hepa-1c1c7 cells assessed as cell viability at 10 uM after 24 hrs by crystal violet staining-based assay; details: read-out: Activity
# [5] = Antioxidant activity assessed as DPPH radical scavenging activity at 2 mM after 30 mins; format: physicochemical; details: 0.5 h, 2000 µM
# [6] = Antioxidant activity assessed as DPPH radical scavenging activity at 0.05 mM after 30 mins; format: physicochemical; details: 0.5 h, 50 µM
# [7] = Antioxidant activity assessed as DPPH radical scavenging activity at 0.125 mM after 30 mins; format: physicochemical; details: 0.5 h, 125 µM
# [8] = Antioxidant activity assessed as DPPH radical scavenging activity at 0.5 mM after 30 mins; format: physicochemical; details: 0.5 h, 500 µM
# Chain of NAD(P)H dehydrogenase [quinone] 1 (Mus musculus) (Q64669 whole entry): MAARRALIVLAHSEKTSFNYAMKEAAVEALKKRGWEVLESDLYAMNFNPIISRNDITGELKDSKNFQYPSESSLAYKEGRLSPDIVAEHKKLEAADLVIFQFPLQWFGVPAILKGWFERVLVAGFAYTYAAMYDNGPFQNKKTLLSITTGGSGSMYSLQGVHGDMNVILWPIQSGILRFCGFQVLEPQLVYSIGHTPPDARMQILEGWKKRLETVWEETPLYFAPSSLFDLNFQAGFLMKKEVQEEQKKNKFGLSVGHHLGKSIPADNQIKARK
Compound,fold change (FC) [2],fold change (FC) [3],inhibition (INH) [5],inhibition (INH) [6],inhibition (INH) [7],inhibition (INH) [8],"viability at 24 h, 20 µM [1]","viability at 24 h, 10 µM [4]"
O=C(/C=C/c1ccc(O)c(O)c1/C(=C/c1ccc(O)c(O)c1)C(=O)O[C@@H](Cc1ccc(O)c(O)c1)C(=O)O)O[C@@H](Cc1ccc(O)c(O)c1)C(=O)O,1.4,2.6,53.6%,4.4%,8.1%,14.8%,88%,94%
O=C1O[C@H]([C@@H](O)CO)C(O)=C1O [ASCORBIC ACID],–,–,74.9%,26%,31.8%,58.5%,–,–
O=c1cc(-c2ccc(Br)cc2)oc2ccccc12,2.9,–,–,–,–,–,–,109%

# Further lines, with some results ahead:
fold change (FC) [2],fold change (FC) [3],inhibition (INH) [5],inhibition (INH) [6],inhibition (INH) [7],inhibition (INH) [8],Compound,"viability at 24 h, 20 µM [1]","viability at 24 h, 10 µM [4]"
1,1.4,84.7%,37.6%,60.2%,64.1%,O=C(/C=C/c1ccc(O)c2c1[C@@H](C(=O)O[C@H](Cc1ccc(O)c(O)c1)C(=O)O)[C@H](c1ccc(O)c(O)c1)O2)O[C@H](Cc1ccc(O)c(O)c1)C(=O)O,79%,85%
1.2,1.7,84.3%,42.1%,64.9%,77.1%,O=C(/C=C/c1ccc(O)c2c1[C@@H](C(=O)O[C@@H](Cc1ccc(O)c(O)c1)C(=O)O)[C@H](c1ccc(O)c(O)c1)O2)O[C@@H](Cc1ccc(O)c(O)c1)C(=O)O,82%,97%
